Test results published in patent US20260034222A1, “HYDROGEL COMPOSITION FOR THE TREATMENT OF PERITONEAL DISEASES” (UPyTher B.V., priority 2023, published 2026).
Each block holds one compound with its values, some of them ahead of it.

What was measured:
[1] = TLR-agonist release from UPy-PEG hydrogels; assay type: physicochemical; conditions: Polymer 6, 6 and 10 wt %, 0.5 mM MEDI9197 (FIG. 11B)
Experimental: The TLR-agonist resiquimod (synonym R848) was loaded from a stock solution (50 mM in DMSO) to 1.27 mM in the hydrogel. The TLR-agonist telratolimod (synonym MEDI9197) was loaded from a stock solution (10 mM in DMSO) to 0.5 mM in the hydrogel.
The drug loaded solution (100 μL) was transferred to a Millicell insert, which was placed in a 24-wells plate filled with PBS pH 7.4 (700 μL). At set time points the PBS was refreshed and the removed PBS was analyzed for R848 content UV absorbance at 320 nm. For MEDI9197, PBS was substituted for a volatile ammonium carbonate buffer and a HPLC-MS method was used. Release experiments were performed with n=3.

[2] = system: mice with peritoneal metastases; conditions: intraperitoneal lavage for 90 minutes versus 60 minutes; cited from earlier work
patients = conditions: dosing regimens of 35 mg/m2; cited from earlier work
[3] = in vivo; cited from earlier work
[4] = Mitomycin C release from UPy-PEG hydrogels; assay type: physicochemical
Experimental: (§1) Mitomycin C was loaded from a stock solution (52 mM in DMSO) to 0.52 mM in the hydrogel solution. The drug loaded solution (100 μL) was transferred to a Millicell insert, which was placed in a 24-wells plate filled with PBS pH 7.4 (600 μL). At set time points the PBS was refreshed and the removed PBS was analyzed for drug content UV absorbance at 363 nm. Release experiments were performed with n=3.

[5] = Drug release from thermoreversible RTGel hydrogel; assay type: physicochemical; conditions: 0.4 mM, PBS pH 7.4 (FIG. 10)
Experimental: RTGel hydrogel was formulated using the following ingredients and quantities:
Mitomycin C and chol-MMC were loaded from a stock solution (30 mM in DMSO) to 0.4 mM in the hydrogel solution. The drug loaded solution (100 μL) was cooled and transferred to a Millicell insert, which was placed in a 24-wells plate filled with PBS pH 7.4 (600 μL). At set time points the PBS was refreshed and the removed PBS was analyzed for drug content UV absorbance at 363 nm. Release experiments were performed with n=3.

tumor cell lines = conditions: cited from earlier work
[6] = Mitomycin C and VX970 combined release from hydrogel; assay type: physicochemical; conditions: Polymer 7, 5 wt %, 12 μg/ml VX970 with 0.52 mM MMC (FIG. 7)
Experimental: as §1, with “C (MMC)” for “C”, “solution. VX970 was loaded from a stock solution (1.2 mg/ml in DMSO) to 12 μg/ml.” for “solution.”, “7.4 (700” for “7.4 (600”, “for MMC” for “for drug”, “content by” for “content”, “nm. For VX970, a HPLC-MS/MS method was used (Kiesel et al.).” for “nm.”

[7] = in words; cited from earlier work

release rate relative to comparator [1]: released slower than MMC
Compound: CCCCCCCCCCCCCCCCCC(=O)NCCCCOn1c(CCCC)nc2c(N)nc3ccccc3c21 [MEDI9197, telratolimod]

Compound: CO[C@@]12[C@H](COC(N)=O)C3=C(C(=O)C(C)=C(N)C3=O)N1C[C@@H]1N[C@@H]12 [Mitomycin C]
survival [2]: better survival
patients who developed severe bone marrow suppression (patients): 28%
half-life in the peritoneal cavity [3]: 1 to 1.5 h
duration of sustained mitomycin C release ([4]; polymer 6, 6, 7, 8 wt %, 0.52 mM, PBS pH 7.4 (FIG. 6)): 1 to 2 days
dependence of drug release on polymer density ([4]; polymer 6, 6, 7 or 8 wt %): not dependent on the polymer density
effect of higher precursor pH on burst release ([4]; polymer 6, precursor pH 8.5, 9.0 or 9.5): did not give rise to an increased burst release
time of release from Pluronic-based RTGel hydrogel [5]: 1 to 2 days
concentration required to kill 90% of the cells (tumor cell lines; exposure time more than 10 hours): 0.1 µg/mL
concentration needed to kill 90% of the cells in culture (tumor cell lines; exposure time shorter than one hour): 5 µg/mL

release rate relative to MMC [6]: released slower than MMC
Compound: CNCc1ccc(-c2cc(-c3nc(-c4ccc(S(=O)(=O)C(C)C)cc4)cnc3N)on2)cc1 [VX-970, berzosertib]
solubility in water [7]: insoluble in water

Compound: CC(=O)O[C@@]12CO[C@@H]1C[C@H](O)[C@@]1(C)C(=O)[C@H](O)C3=C(C)[C@@H](OC(=O)[C@H](O)[C@@H](NC(=O)OC(C)(C)C)c4ccccc4)C[C@@](O)([C@@H](OC(=O)c4ccccc4)[C@H]21)C3(C)C [docetaxel]
clearance from the peritoneal cavity [3]: cleared in less than day

Compound: CC(=O)O[C@H]1C(=O)[C@@]2(C)[C@H]([C@H](OC(=O)c3ccccc3)[C@]3(O)C[C@H](OC(=O)[C@H](O)[C@@H](NC(=O)c4ccccc4)c4ccccc4)C(C)=C1C3(C)C)[C@]1(OC(C)=O)CO[C@@H]1C[C@@H]2O [paclitaxel]
clearance from the peritoneal cavity [3]: cleared in less than day
